Laboratory results as given in ChEMBL document CHEMBL3808292, “Synthesis and biological evaluation of 5,7-dihydroxyflavanone derivatives as antimicrobial agents” (Bioorg Med Chem Lett, 2016).
≈ marks a conversion by molar mass, not a printed value.

Key:
[1] = Aqueous solubility of compound at 50 uM; format: physicochemical; details: buffer
Staphylococcus aureus = assay: Antimicrobial activity against Staphylococcus aureus ATCC 33807 after 24 hrs by spectrophotometric method; format: functional; details: ATCC 33807, 24 h
Bacillus subtilis = assay: Antimicrobial activity against Bacillus subtilis 1012 after 24 hrs by spectrophotometric method; format: functional; details: Bacillus subtilis, 1012, 24 h
Vibrio cholerae = assay: Antimicrobial activity against Vibrio cholerae 0395N1 after 24 hrs by spectrophotometric method; format: functional; details: 0395N1, 24 h
[2] = Aqueous solubility of compound; format: physicochemical; details: buffer
HepG2 [3] = assay: (§1) Cytotoxicity against human HepG2 cells assessed as cell viability at 50 uM after 24 hrs by MTS assay; format: cell-based; details: hepg2, 24 h, 50 µM
Bacillus cereus = assay: Antimicrobial activity against Bacillus cereus 10987 after 24 hrs by spectrophotometric method; format: functional; details: Bacillus cereus, 10987, 24 h
Escherichia coli = assay: Antimicrobial activity against Escherichia coli BW25113 after 24 hrs by spectrophotometric method; format: functional; details: BW25113, 24 h
Saccharomyces cerevisiae = assay: Antifungal activity against Saccharomyces cerevisiae INVSc1 after 24 hrs by spectrophotometric method; format: functional; details: INVSc1, 24 h
Pseudomonas aeruginosa = assay: Antimicrobial activity against Pseudomonas aeruginosa PAO1 after 24 hrs by spectrophotometric method; format: functional; details: PAO1, 24 h
HepG2 [4] = assay: Cytotoxicity against human HepG2 cells assessed as cell viability after 24 hrs by MTS assay; format: cell-based; details: for Activity: human, hepg2, 24 h
Bacillus anthracis = assay: Antimicrobial activity against Bacillus anthracis delta sterne after 24 hrs by spectrophotometric method; format: functional
[5] = Cytotoxicity against human HepG2 cells assessed as cell viability at 50 uM after 6 hrs by MTS assay; format: cell-based; details: read-out: Activity
[6] = as §1; format: cell-based; details: HepG2 cells, read-out: Activity

SMILES | solubility [1] | MIC (Staphylococcus aureus) | MIC (Bacillus subtilis) | MIC (Vibrio cholerae) | solubility [2] | Activity (HepG2 [3]) | MIC (Bacillus cereus) | MIC (Escherichia coli) | MIC (Saccharomyces cerevisiae) | MIC (Pseudomonas aeruginosa) | Activity (HepG2 [4]) | MIC (Bacillus anthracis) | IC50 (HepG2 [4]; Homo sapiens, HepG2, 24 h) | viability at 6 h, 50 µM [5] | viability at 24 h, 50 µM [6]
O=C1CC(c2cc(O)c(O)c(O)c2)Oc2cc(O)cc(O)c21 (centres undefined) | soluble | 1000 µM (≈ 304 µg/mL) | 1000 µM (≈ 304 µg/mL) | 1000 µM (≈ 304 µg/mL) | 63 µM (≈ 19.2 µg/mL) | Non-toxic | 1000 µM (≈ 304 µg/mL) | 1000 µM (≈ 304 µg/mL) | 1000 µM (≈ 304 µg/mL) | 1000 µM (≈ 304 µg/mL) | Dose-dependent effect | 1000 µM (≈ 304 µg/mL) |  |  | 
O=C1CC(c2ccc(Cl)c(F)c2)Oc2cc(O)cc(O)c21 (centres undefined) | soluble | 125 µM (≈ 38.6 µg/mL) | 125 µM (≈ 38.6 µg/mL) | 125 µM (≈ 38.6 µg/mL) | 500 µM (≈ 154 µg/mL) | Non-toxic | 93.8 µM (≈ 28.9 µg/mL) | 250 µM (≈ 77.2 µg/mL) | 250 µM (≈ 77.2 µg/mL) | 250 µM (≈ 77.2 µg/mL) | Dose-dependent effect | 62.5 µM (≈ 19.3 µg/mL) |  |  | 
O=C1CC(c2cc(F)c(F)c(F)c2)Oc2cc(O)cc(O)c21 (centres undefined) | soluble | 1000 µM (≈ 310 µg/mL) | 1000 µM (≈ 310 µg/mL) | 1000 µM (≈ 310 µg/mL) | 500 µM (≈ 155 µg/mL) | Non-toxic | 1000 µM (≈ 310 µg/mL) | 1000 µM (≈ 310 µg/mL) | 125 µM (≈ 38.8 µg/mL) | 1000 µM (≈ 310 µg/mL) | Dose-dependent effect | 1000 µM (≈ 310 µg/mL) | 95 µM |  | 
O=C1CC(c2ccc(F)c(F)c2)Oc2cc(O)cc(O)c21 (centres undefined) | soluble | 125 µM (≈ 36.5 µg/mL) | 125 µM (≈ 36.5 µg/mL) | 125 µM (≈ 36.5 µg/mL) | 1000 µM (≈ 292 µg/mL) | Non-toxic | 125 µM (≈ 36.5 µg/mL) | 1000 µM (≈ 292 µg/mL) | 1000 µM (≈ 292 µg/mL) | 1000 µM (≈ 292 µg/mL) | Dose-dependent effect | 62.5 µM (≈ 18.3 µg/mL) |  |  | 
O=C1CC(c2ccc(F)cc2)Oc2cc(O)cc(O)c21 (centres undefined) | soluble | 125 µM (≈ 34.3 µg/mL) | 125 µM (≈ 34.3 µg/mL) | 125 µM (≈ 34.3 µg/mL) | 1000 µM (≈ 274 µg/mL) | Non-toxic | 125 µM (≈ 34.3 µg/mL) | 500 µM (≈ 137 µg/mL) | 250 µM (≈ 68.6 µg/mL) | 500 µM (≈ 137 µg/mL) | Dose-dependent effect | 125 µM (≈ 34.3 µg/mL) |  |  | 
O=C1CC(c2ccc(Cl)c(Cl)c2)Oc2cc(O)cc(O)c21 (centres undefined) | soluble | 62.5 µM (≈ 20.3 µg/mL) | 62.5 µM (≈ 20.3 µg/mL) | 125 µM (≈ 40.6 µg/mL) | 63 µM (≈ 20.5 µg/mL) |  | 31.2 µM (≈ 10.2 µg/mL) | 125 µM (≈ 40.6 µg/mL) | 31.2 µM (≈ 10.2 µg/mL) | 125 µM (≈ 40.6 µg/mL) | Dose-dependent effect | 31.2 µM (≈ 10.2 µg/mL) |  | 17% | 57%
